Results published in paper PMC9697614, “Rufinamide, a Triazole-Derived Antiepileptic Drug, Stimulates Ca^2+-Activated K^+ Currents While Inhibiting Voltage-Gated Na^+ Currents” (International Journal of Molecular Sciences, 2022).

Target: T1, large-conductance Ca2+-activated K+ channel (BKCa, KCa1.1, KCNMA1, Slo1) (Rattus norvegicus, UniProt Q62976)
T1 construct: native channel in pituitary GH3 cells
Assay: patch clamp: inside-out single-channel recordings (RFM on cytosolic face) and whole-cell IK(Ca) concentration-response
Type: cell-based

T1 sequence (Q62976 whole entry): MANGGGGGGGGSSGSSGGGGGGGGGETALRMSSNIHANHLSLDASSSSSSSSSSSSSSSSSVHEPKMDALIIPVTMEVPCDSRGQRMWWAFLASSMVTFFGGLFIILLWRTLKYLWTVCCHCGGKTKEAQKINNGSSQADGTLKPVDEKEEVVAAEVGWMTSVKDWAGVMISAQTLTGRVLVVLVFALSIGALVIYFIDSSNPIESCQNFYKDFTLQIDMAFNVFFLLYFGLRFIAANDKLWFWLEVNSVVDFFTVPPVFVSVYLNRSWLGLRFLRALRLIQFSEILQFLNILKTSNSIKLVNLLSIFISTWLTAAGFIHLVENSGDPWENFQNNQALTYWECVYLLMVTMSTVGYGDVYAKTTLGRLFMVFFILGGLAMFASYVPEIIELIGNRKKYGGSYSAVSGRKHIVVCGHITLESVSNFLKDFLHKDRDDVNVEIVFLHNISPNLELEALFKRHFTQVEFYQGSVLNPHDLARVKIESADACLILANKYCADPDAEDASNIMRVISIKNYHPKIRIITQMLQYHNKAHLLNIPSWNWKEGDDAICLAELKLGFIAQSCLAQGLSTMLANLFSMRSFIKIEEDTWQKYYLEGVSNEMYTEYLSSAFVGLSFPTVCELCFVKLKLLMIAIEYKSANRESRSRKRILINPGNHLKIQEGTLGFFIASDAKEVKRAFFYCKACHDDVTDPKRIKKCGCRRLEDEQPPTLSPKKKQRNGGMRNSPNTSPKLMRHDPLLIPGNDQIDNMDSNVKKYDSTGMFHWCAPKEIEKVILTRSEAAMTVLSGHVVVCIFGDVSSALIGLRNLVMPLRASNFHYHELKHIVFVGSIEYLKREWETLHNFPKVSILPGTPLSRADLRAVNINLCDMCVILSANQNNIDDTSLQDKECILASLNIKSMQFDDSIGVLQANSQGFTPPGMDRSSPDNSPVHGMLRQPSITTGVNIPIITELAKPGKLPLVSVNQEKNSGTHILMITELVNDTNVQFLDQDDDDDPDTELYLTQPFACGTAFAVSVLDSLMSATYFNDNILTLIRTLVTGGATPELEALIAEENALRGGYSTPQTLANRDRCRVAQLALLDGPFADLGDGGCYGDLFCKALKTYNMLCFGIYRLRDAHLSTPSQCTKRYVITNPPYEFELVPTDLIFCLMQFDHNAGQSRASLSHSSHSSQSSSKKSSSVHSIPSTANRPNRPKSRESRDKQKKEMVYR

NC(=O)c1cn(Cc2c(F)cccc2F)nn1 [RFM, 1-((2,6-difluorophenyl)methyl)-1H-1,2,3-triazole-4carboxamide]
EC50: 3.9 µM
